Source: patent publication US9283277B2, “Methods and compositions for the treatment of obesity” (Children's Medical Center Corporation, priority 2008, dated 2016)

What was measured:
[1] = tested on: PERK (Thr980) phosphorylation; assay: Hypothalamic PERK (Thr980) phosphorylation in ob/ob mice; format: in vivo; settings: vs vehicle
Procedure: Nine-week old lean wt and ob/ob mice were orally treated with either PBA (1 g/kg/day) or vehicle (VEH) for 26 days and PERK (Thr980) phosphorylation is examined in the hypothalamus extracts with direct immunoblotting. (B) Ten week-old wt lean and ob/ob mice were intraperitoneally injected with leptin (0.1 mg/kg) after six-hour starvation. Hypothalami were removed 30 minutes after the injections, and pStat3^Tyr705 and total Stat3 levels were examined. (C) Nine-week old lean wt and ob/ob mice were orally treated with PBA (1 g/kg/day) for 10 days. Following the pretreatment period, leptin-deficient ob/ob mice were either administered with VEH or with different doses of leptin through the intraperitoneal route. […]
(a) Hypothalamic PERK phosphorylation (Thr980) after 21 days of vehicle or TUDCA (150 mg/kg/day) treatment. […] Error bars are ±S.E.M., P values are determined by Student's t-test. […]
If the postulate that reduction of ER stress in the hypothalamus increases leptin sensitivity is true, chemical chaperones other than PBA should also create the same effect and sensitize the obese mice to leptin. […] For this purpose we treated ob/ob mice either with vehicle or TUDCA (150 mg/kg/day) for a period of 21 days and analyzed the hypothalamic PERK phosphorylation. […]

db/db mice = assay: PBA and leptin co-administration in db/db mice; format: in vivo; settings: for body weight / food consumption / food intake: PBA 1 g/kg/day oral and/or leptin 1 mg/kg IP, 16 days
Procedure: Six-week old db/db mice were orally treated with either PBA (1 g/kg/day) or VEH for four days. Following the pretreatment period, leptin receptor-deficient db/db mice were either administered with VEH or leptin (1 mg/kg) through intraperitoneal route for 16 days. (a) Bodyweight (g), (b) percent increase in bodyweight and (c) 24-hour food intake, (d) Blood glucose (mg/dl) levels of the groups. (n=5 in each group). Error bars are ±S.E.M., P values are determined by Student's t-test. (*p<0.05, **p<0.01, ***p<0.001).
We investigated whether the effect created by PBA and leptin combinatory treatment is solely mediated through the LepRb and not due to a non-specific effect. First, we pretreated db/db mice with PBA or vehicle for four days and subsequently initiated the leptin (1 mg/kg) treatment.

Molecule | PERK (Thr980) phosphorylation in hypothalamus ([1]; PBA 1 g/kg/day orally, 26 days) | body weight (db/db mice) | food consumption / food intake (db/db mice) | blood glucose levels (db/db mice; PBA 1 g/kg/day oral vs vehicle) | hypothalamic PERK phosphorylation (PERK activity) ([1]; TUDCA 150 mg/kg/day, 21 days)
O=C(O)CCCc1ccccc1 [PBA, 4-phenyl butyric acid] | significantly reduced | significantly gained weight | no difference | reduced to a significantly lower level | –
leptin: adipocyte-derived hormone that suppresses appetite | – | did not decrease | did not decrease | – | –
C[C@H](CCC(=O)NCCS(=O)(=O)O)[C@H]1CC[C@H]2[C@@H]3[C@@H](O)C[C@@H]4C[C@H](O)CC[C@]4(C)[C@H]3CC[C@]12C [TUDCA, tauroursodeoxycholic acid] | – | – | – | – | down regulated
